Patent US11685734B2, “ATM kinase inhibitors and compositions and methods of use thereof” (CHDI Foundation, Inc., priority 2019, dated 2023)

Legend:
cellular ATM activity = cellular ATM activity (Homo sapiens (Human), UniProt Q13315); assay: Inhibition of cellular ATM activity: etoposide-stimulated KAP1 phosphorylation in U20S cells; type: cell-based; details: 100 μM etoposide, 60 min, read-out: ATM CELL IC50
Protocol: Inhibition of cellular ATM activity was determined by changes in etoposide-stimulated KAP1 phosphorylation, based on the work of Guo et al. 2014.
Cryopreserved U20S cells were plated overnight at 6 k cells/well in black walled, clear bottomed 384 well plates (Greiner Bio One 781090). After overnight incubation (37 C, 5% CO2), cells were incubated with titrations of test compounds (0.3% DMSO final) in the presence of 100 μM etoposide (Sigma E1383) to stimulate ATM via induction of double stranded DNA breaks. After 60 min, cells were fixed using 100% cold methanol and incubated at −20° C. for 10 min. Fixed cells were washed with PBS containing 0.05% (v/v) Tween 20 (PBS-T) prior to a 60 minute blocking step in Odyssey blocking buffer (LI-COR Biosciences 92740000). Primary antibodies (1:1000 phosphorylated KAP1: Cell Signalling Technology 4127, 1:5000 total KAP1: Cell Signaling Technology 5868) were diluted in Odyssey blocking buffer and incubated overnight at 4° C., before addition of IRDye(R) conjugated secondary antibodies (LI-COR Biociences 926-32211, LI-COR Biosciences 926-68070) diluted 1:2000 in Odyssey blocking buffer for 60 min at room temperature and detection by LI-COR Odyssey (ImageStudio version 2.1.10, focus offset 4 mm, resolution 169 μm, lowest quality, intensities of 1 and 3 for 700 and 800 channels respectively). Immunoreactivity was quantified and the ratio of phosphorylated KAP1 calculated by dividing by the total KAP1 immunoreactivity. The percentage of inhibition was calculated for each concentration of compound using 100% (100 μM etoposide+30 μM KU-60019) and 0% effect controls (100 μM etoposide+DMSO). IC50 values represent the mean from at least two independent experiments.

[1] = target: Recombinant, full length human FLAG-tagged ATM (Homo sapiens (Human), UniProt Q13315); assay: ATM ELISA for p53 S15 phosphorylation; type: biochemical; details: 0.75 nM ATM, 25 nM p53, 10 μM ATP, 30 min at 20° C.; read-out: ATM BIO IC50
Protocol: ATM: Recombinant, full length human FLAG-tagged ATM activity (Eurofins 14-933) was measured in an ELISA for p53 S15 phosphorylation, in a 384 well V-bottom polypropylene plate (Greiner Bio One 781280). Reactions contained 0.75 nM ATM, 25 nM full length myc tagged p53 (Eurofins 23-034), 10 μM UltraPure ATP (Promega V915B) and serial dilutions of inhibitors (0.1% DMSO final) in 25 mM HEPES, pH 7.5. 5 mM MgCl2, 2.5 mM MnCl2, 0.006% Brij-35, 0.5% glycerol, 0.1 mg/ml BSA, 0.5 mM DTT and were allowed to proceed for 30 min at 20° C. 70 mM EDTA final terminated the kinase reactions. An aliquot of the terminated reaction (25 μl) was transferred to a 384-well, high binding microplate (Greiner Bio One 781061), precoated with anti-myc capture antibody overnight (Millipore 05-724) diluted in 1:1000 in PBS, then blocked with Odyssey blocking buffer (LI-COR Biosciences 92740000) for 60 min at 20° C. The terminated reaction was allowed to capture for 2 h at 20° C. Phosphorylation was measured using an antibody specific to p53 S15 phosphorylation (1:5000 Abcam ab38497), anti-rabbit HRP (1:1000 Cell Signalling Technology, 7074) and TMB (ab171522). Antibodies were diluted in Odyssey blocking buffer and incubated for 60 min at 20° C. Three washes with PBS containing 0.05% (v/v) Tween 20 (PBS-T) were performed between each incubation. The TMB reaction was stopped with an equal volume of 0.2 M sulfuric acid and absorbance read at 450 nm on the Perkin Elmer Envision within 30 min of terminating the reaction. […] IC50 values represent the mean from at least two independent experiments.

Recombinant, full length human FLAG-tagged ATM, sequence (Q13315 whole entry): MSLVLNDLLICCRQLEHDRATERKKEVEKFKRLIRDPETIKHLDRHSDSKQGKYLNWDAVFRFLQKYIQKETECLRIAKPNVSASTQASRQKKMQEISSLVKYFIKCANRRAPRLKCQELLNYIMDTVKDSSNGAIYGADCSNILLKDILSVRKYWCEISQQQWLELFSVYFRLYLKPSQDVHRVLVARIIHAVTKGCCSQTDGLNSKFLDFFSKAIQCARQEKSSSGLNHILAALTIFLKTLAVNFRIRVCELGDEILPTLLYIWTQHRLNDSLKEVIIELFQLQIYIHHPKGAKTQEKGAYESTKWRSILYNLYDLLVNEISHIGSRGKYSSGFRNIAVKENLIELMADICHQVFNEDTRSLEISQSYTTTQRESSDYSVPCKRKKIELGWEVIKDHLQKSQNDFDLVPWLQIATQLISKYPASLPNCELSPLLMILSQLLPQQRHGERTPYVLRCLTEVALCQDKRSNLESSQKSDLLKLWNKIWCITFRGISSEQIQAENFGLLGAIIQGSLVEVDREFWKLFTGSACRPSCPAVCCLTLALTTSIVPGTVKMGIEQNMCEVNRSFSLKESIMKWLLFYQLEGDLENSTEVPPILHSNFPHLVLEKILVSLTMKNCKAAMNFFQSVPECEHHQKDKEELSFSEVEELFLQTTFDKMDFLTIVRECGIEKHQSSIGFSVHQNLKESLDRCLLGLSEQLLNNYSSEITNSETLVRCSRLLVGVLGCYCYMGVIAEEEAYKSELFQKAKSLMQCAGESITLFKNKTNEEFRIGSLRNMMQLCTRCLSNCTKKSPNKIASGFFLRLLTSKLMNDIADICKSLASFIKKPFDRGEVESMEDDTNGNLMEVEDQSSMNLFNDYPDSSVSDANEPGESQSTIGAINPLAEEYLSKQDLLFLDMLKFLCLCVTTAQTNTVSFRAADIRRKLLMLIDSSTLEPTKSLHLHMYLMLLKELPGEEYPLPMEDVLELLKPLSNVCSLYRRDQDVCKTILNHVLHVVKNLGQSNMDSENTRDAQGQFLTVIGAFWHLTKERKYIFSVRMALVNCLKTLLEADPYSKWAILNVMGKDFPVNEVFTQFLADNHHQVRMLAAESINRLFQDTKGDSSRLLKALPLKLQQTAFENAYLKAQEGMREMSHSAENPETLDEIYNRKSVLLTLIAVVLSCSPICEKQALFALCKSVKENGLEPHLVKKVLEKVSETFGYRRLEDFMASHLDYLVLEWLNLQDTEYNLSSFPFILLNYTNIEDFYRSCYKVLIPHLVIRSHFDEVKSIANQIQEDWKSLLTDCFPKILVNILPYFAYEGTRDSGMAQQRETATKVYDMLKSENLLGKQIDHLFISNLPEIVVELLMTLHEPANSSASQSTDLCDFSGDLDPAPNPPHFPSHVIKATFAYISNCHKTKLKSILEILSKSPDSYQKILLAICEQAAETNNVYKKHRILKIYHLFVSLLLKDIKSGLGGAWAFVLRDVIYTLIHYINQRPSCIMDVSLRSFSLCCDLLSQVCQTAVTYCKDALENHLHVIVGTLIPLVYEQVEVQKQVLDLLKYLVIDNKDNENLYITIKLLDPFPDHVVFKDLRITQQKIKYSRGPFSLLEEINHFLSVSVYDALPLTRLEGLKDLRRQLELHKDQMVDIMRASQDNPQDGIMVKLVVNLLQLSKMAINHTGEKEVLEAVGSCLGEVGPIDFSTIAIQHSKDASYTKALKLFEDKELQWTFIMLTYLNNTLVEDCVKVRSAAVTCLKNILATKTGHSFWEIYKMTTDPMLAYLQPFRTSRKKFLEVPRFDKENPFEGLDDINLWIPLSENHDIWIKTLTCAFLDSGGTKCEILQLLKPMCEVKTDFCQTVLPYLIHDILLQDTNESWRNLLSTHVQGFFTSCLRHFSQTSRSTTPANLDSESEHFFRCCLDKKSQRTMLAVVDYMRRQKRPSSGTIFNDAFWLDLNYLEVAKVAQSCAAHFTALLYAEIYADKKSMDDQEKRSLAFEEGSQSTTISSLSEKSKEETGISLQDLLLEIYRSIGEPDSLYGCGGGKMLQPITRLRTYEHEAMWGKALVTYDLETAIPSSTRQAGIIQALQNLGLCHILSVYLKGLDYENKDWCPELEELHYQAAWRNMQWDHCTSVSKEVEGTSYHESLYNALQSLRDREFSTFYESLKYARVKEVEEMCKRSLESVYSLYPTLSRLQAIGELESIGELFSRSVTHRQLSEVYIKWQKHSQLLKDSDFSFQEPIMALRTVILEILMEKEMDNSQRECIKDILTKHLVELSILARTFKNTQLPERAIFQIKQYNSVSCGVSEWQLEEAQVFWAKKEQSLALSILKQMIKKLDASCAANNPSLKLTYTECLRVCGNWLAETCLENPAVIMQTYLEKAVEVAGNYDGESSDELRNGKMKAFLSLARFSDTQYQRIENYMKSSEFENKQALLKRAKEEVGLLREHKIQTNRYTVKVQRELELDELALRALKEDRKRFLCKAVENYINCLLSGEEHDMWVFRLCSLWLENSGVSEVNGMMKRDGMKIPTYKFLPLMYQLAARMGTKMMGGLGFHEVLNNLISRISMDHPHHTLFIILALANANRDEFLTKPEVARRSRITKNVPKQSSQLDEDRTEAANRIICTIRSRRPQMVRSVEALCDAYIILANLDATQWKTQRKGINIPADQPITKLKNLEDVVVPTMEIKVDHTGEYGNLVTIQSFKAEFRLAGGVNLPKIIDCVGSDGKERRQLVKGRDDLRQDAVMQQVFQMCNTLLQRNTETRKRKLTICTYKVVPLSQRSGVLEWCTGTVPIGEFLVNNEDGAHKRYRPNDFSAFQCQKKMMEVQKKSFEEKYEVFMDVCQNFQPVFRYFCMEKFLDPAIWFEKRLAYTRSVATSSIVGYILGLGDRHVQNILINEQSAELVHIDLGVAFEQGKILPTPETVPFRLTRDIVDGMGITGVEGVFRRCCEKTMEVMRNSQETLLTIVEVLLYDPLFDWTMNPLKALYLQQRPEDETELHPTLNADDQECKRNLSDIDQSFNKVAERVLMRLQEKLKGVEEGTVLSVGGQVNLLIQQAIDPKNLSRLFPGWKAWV
cellular ATM activity, sequence (Q13315 whole entry): as above

Structure (SMILES) | IC50 (cellular ATM activity) [nM] | IC50 [1] [nM]
O=c1cc(N2CCOCC2)cc(N2CC[C@@H](OC(F)F)[C@@H]2Cc2ccccc2)[nH]1 [Example 90, 6-((2S,3R)-2-benzyl-3-(difluoromethoxy)pyrrolidin-1-yl)-4-morpholinopyridin-2(1H)-one] | 874 | 39.1
O=c1cc(N2CCOCC2)cc(N2CCC(F)(F)[C@@H]2Cc2ccccc2)[nH]1 [Example 98, (S)-6-(2-benzyl-3,3-difluoropyrrolidin-1-yl)-4-morpholinopyridin-2(1H)-one] | 925 | 38.4
O=c1cc(N2CCOCC2)cc(N2CC(F)(F)C[C@@H]2Cc2ccccc2)[nH]1 [Example 102, (S)-6-(2-benzyl-4,4-difluoropyrrolidin-1-yl)-4-morpholinopyridin-2(1H)-one] | 2220 | 39.6
C[C@@H]1CN(c2cc(N3[C@@H]4CC[C@@H](C4)[C@@H]3Cc3ccccc3)[nH]c(=O)c2)CCO1 [Example 117, 6-((1R,3S,4S)-3-benzyl-2-azabicyclo[2.2.1]heptan-2-yl)-4-((R)-2-methylmorpholino) pyridin-2(1H)-one] | 684 | 72.8
O=c1cc(C2=CCOCC2)cc(N2CCCCC[C@@H]2Cc2ccccc2)[nH]1 [Example 167, (R)-6-(2-benzylazepan-1-yl)-4-(3,6-dihydro-2H-pyran-4-yl)pyridin-2(1H)-one] | 1540 | 38.7
Cn1c(N2CCC[C@@H]2Cc2ccccc2)cc(N2CCOCC2)cc1=O [Example 173, (R)-6-(2-benzylpyrrolidin-1-yl)-1-methyl-4-morpholinopyridin-2(1H)-one] | 1900 | 37.8
Cn1c(N2CCC[C@@H]2Cc2ccccc2)nc(N2CCOCC2)cc1=O [Example 176, (R)-2-(2-benzylpyrrolidin-1-yl)-3-methyl-6-morpholinopyrimidin-4(3H)-one] | 462 | 5.1
O=c1cc(N2CCOCC2)nc(N2CCC[C@@H]2Cc2ccccc2)[nH]1 [Example 178, (R)-2-(2-benzylpyrrolidin-1-yl)-6-morpholinopyrimidin-4-ol] | 451 | 8
Cc1ccc(C[C@H]2CCCN2c2nc(N3CCOCC3)cc(=O)[nH]2)cc1 [Example 186] | 852 | 14.4
Cc1cc(C[C@H]2CCCN2c2nc(N3CCOCC3)cc(=O)[nH]2)cc(C)n1 [Example 188] | 1060 | 28.7
O=c1cc(N2CCOCC2)nc(N2CCC[C@@H]2Cc2ccc(Cl)c(Cl)c2)[nH]1 [Example 190] | 939 | 4.2
O=c1cc(N2CCOCC2)nc(N2CCCC2Cn2cnc3ccccc32)[nH]1 (centres unmarked) [Example 192] | 1340 | 30
O=c1cc(N2CCOCC2)nc(N2CCC[C@@H]2Cc2ccc(F)cc2)[nH]1 [Example 193] | 598 | 9.7
CC(C)(c1ccccc1)[C@H]1CCCN1c1nc(N2CCOCC2)cc(=O)[nH]1 [Example 196] | 975 | 46.9

Second part, the compound after the results:

IC50 (cellular ATM activity) [nM] | IC50 [1] [nM] | Structure (SMILES)
274 | 2.4 | O=c1cc(N2CCOCC2)cc(N2CCCCC[C@@H]2Cc2cccc3c2OCO3)[nH]1 [Example 70, (R)-6-(2-(benzo[d][1,3]dioxol-4-ylmethyl)azepan-1-yl)-4-morpholinopyridin-2(1H)-one]
498 | 11.2 | O=c1cc(N2CCOCC2)cc(N2CCCC(F)(F)C[C@@H]2Cc2ccccc2)[nH]1 [Example 74, (S)-6-(2-benzyl-4,4-difluoroazepan-1-yl)-4-morpholinopyridin-2(1H)-one]
2680 | 70.2 | CC1(C)CCCN(c2cc(N3CCOCC3)cc(=O)[nH]2)[C@@H](Cc2ccccc2)C1 [Example 76, (R)-6-(2-benzyl-4,4-dimethylazepan-1-yl)-4-morpholinopyridin-2(1H)-one]
318 | 10.8 | O=c1cc(N2CCOCC2)cc(N2CCCCC[C@@H]2Cc2ccccc2F)[nH]1 [Example 78, (R)-6-(2-(2-fluorobenzyl)azepan-1-yl)-4-morpholinopyridin-2(1H)-one]
864 | 47.6 | C[C@@H]1CCCN(c2cc(N3CCOCC3)cc(=O)[nH]2)[C@@H](Cc2ccccc2)C1 [Example 84, 6-((2R,4R)-2-benzyl-4-methylazepan-1-yl)-4-morpholinopyridin-2(1H)-one]
1380 | 65 | COc1ccc(F)cc1C[C@H]1CCCCCN1c1cc(N2CCOCC2)cc(=O)[nH]1 [Example 86]
1660 | 53 | CO[C@@H]1CCN(c2cc(N3CCOCC3)cc(=O)[nH]2)[C@H]1Cc1ccccc1 [Example 88, 6-((2S,3R)-2-benzyl-3-methoxypyrrolidin-1-yl)-4-morpholinopyridin-2(1H)-one]
270 | 5.5 | O=c1cc(N2CCOCC2)cc(N2CC[C@@H](F)[C@@H]2Cc2ccccc2)[nH]1 [Example 96, 6-((2S,3R)-2-benzyl-3-fluoropyrrolidin-1-yl)-4-morpholinopyridin-2(1H)-one]
861 | 21.2 | O=c1cc(N2CCOCC2)cc(N2C[C@H]3CCC[C@H]3[C@@H]2Cc2ccccc2)[nH]1 [Example 123]
248 | 3.3 | O=c1cc(N2CCOCC2)cc(N2C[C@@H]3CCC[C@@H]3[C@@H]2Cc2ccccc2)[nH]1 [Example 124]
388 | 6.9 | COc1ccccc1C[C@H]1[C@@H]2C[C@@H]2CN1c1cc(N2CCOCC2)cc(=O)[nH]1 [Example 126]
711 | 14.7 | COc1ccccc1C[C@H]1[C@H]2C[C@H]2CN1c1cc(N2CCOCC2)cc(=O)[nH]1 [Example 128]
581 | 13.9 | O=c1cc(N2CCOCC2)cc(N2C[C@@H]3CC[C@@H](C3)[C@@H]2Cc2ccccc2)[nH]1 [Example 134]
178 | 8.7 | O=c1cc(N2CCOCC2)cc(N2C[C@H]3CC[C@H](C3)[C@@H]2Cc2ccccc2)[nH]1 [Example 135]
2030 | 65.6 | COC[C@@H](C)Oc1ccc(C[C@H]2CCCN2c2cc(N3CCOCC3)cc(=O)[nH]2)cc1 [Example 145, 6-((R)-2-(4-(((R)-1-methoxypropan-2-yl)oxy)benzyl)pyrrolidin-1-yl)-4-morpholinopyridin-2(1H)-one]
1860 | 74.2 | O=c1cc(N2CCOCC2)cc(N2CCC[C@@H]2Cc2cccc(OC3CCOCC3)c2)[nH]1 [Example 146, (R)-4-morpholino-6-(2-(3-((tetrahydro-2H-pyran-4-yl)oxy)benzyl)pyrrolidin-1-yl)pyridin-2(1H)-one]
1170 | 41.8 | COC[C@@H](C)Oc1cccc(C[C@H]2CCCN2c2cc(N3CCOCC3)cc(=O)[nH]2)c1 [Example 148, 6-((R)-2-(3-(((R)-1-methoxypropan-2-yl)oxy)benzyl)pyrrolidin-1-yl)-4-morpholinopyridin-2(1H)-one]
1020 | 20.9 | COC[C@@H](C)Oc1ccc(C[C@H]2CCCCCN2c2cc(N3CCOCC3)cc(=O)[nH]2)cc1 [Example 151, 6-((R)-2-(4-(((R)-1-methoxypropan-2-yl)oxy)benzyl)azepan-1-yl)-4-morpholinopyridin-2(1H)-one]
548 | 1.2 | Cc1ccccc1C[C@H]1CCCCCN1c1nc(N2CCOCC2)cc(=O)[nH]1 [Example 181, (R)-2-(2-(2-methylbenzyl)azepan-1-yl)-6-morpholinopyrimidin-4(3H)-one]
711 | 14.9 | COc1ccccc1C[C@H]1CCCCN1c1nc(N2CCOCC2)cc(=O)[nH]1 [Example 197]
